Consider 4 substances from patent EP4810040A2, “INHIBITORS OF APOL1 AND METHODS OF USING SAME” (priority 2020, dated 2022).

Some results are limits rather than exact numbers.

The target of one assay is T1, APOL1 G1 (Homo sapiens, UniProt O14791, I384M/S342G).
T1 sequence (O14791 28-398 S342G/I384M): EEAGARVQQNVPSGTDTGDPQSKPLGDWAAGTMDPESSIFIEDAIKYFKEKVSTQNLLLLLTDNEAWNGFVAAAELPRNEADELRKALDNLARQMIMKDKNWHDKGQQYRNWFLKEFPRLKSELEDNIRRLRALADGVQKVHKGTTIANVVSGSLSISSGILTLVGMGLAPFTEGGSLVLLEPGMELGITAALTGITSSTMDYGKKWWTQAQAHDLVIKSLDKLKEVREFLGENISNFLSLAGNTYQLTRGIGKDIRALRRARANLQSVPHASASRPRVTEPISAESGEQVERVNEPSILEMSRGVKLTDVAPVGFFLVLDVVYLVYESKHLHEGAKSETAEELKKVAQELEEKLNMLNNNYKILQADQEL
Description: MultiTox-Fluor Multiplex Cytotoxicity Assay, tet-inducible APOL1 G1 T-REx-HEK293 cells. The class given is cell-based. The arrangement: expressed in transfected cells; host or cells: T-REx HEK293, clone G1 DC3.25 (pAAVS1-Puro-APOL1 G1). Conditions: IP50 = IC50 for cell proliferation; Multi-Tox Assay; APOL1 variant not given. The method, boiled down:
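Over 24 h at 37 °C, compounds (10-point 3-fold series from 10 µM, duplicate) were co-incubated with 50 ng/mL tetracycline inducing APOL1 G1 in T-REx-HEK293 cells. Viability/cytotoxicity measured by MultiTox-Fluor as dead-to-live fluorescence ratio, expressed as percent of control between uninduced and induced wells and fitted.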
“(2S,6S)-2-chloro-2'-cyclopropyl-6'-methyl-spiro[4,5-dihydrothieno[2,3-c]pyran-7,4'-piperidine] [Compound 211]”: the IC50 (commonly the midpoint of a concentration-inhibition curve) was less than 50 nM.
The substance “(2S)-2-chloro-2'-methyl-6'-(1-methylpyrazol-4-yl)spiro[4,5-dihydrothieno[2,3-c]pyran-7,4'-piperidine]-4-ol [Compound 175]” returned an IC50 of less than 50 nM.
Consider “2-chloro-2'-ethyl-6'-(1-methyltriazol-4-yl)spiro[4,5-dihydrothieno[2,3-c]pyran-7,4'-piperidine] [Compound 186]”, for which the IC50 was less than 50 nM.
Substance “2'-ethyl-6'-(1-methyltriazol-4-yl)-2-(trifluoromethyl)spiro[4,5-dihydrothieno[2,3-c]pyran-7,4'-piperidine] [Compound 187]” had an IC50 of less than 50 nM.

Staying with this assay, now noted: Multi-Tox Assay; APOL1 variant (G0/G1/G2) of the HEK293 cells not given; read-out: Multi-Tox Assay IC90.
In the case of “(2S,6S)-2-chloro-2'-cyclopropyl-6'-methyl-spiro[4,5-dihydrothieno[2,3-c]pyran-7,4'-piperidine] [Compound 211]”, the 90% effect concentration (IC90) (commonly the point of the concentration-response curve where the effect stands at 90%) lay within 50 to 500 nM.
In the case of “(2S)-2-chloro-2'-methyl-6'-(1-methylpyrazol-4-yl)spiro[4,5-dihydrothieno[2,3-c]pyran-7,4'-piperidine]-4-ol [Compound 175]”, the 90% effect concentration (IC90) is less than 50 nM.
On the same count and under the same terms, the result for “2-chloro-2'-ethyl-6'-(1-methyltriazol-4-yl)spiro[4,5-dihydrothieno[2,3-c]pyran-7,4'-piperidine] [Compound 186]” reads 50 to 500 nM; that for “2'-ethyl-6'-(1-methyltriazol-4-yl)-2-(trifluoromethyl)spiro[4,5-dihydrothieno[2,3-c]pyran-7,4'-piperidine] [Compound 187]”, less than 50 nM.

For another assay, the target named is T1, APOL1 G1. Description: Trypanosoma brucei brucei Lysis Assay Using APOL1 Recombinant Protein (AlamarBlue viability readout). The class given is cell-based. Conditions: IP50 = IC50 for cell proliferation; Trypanosome Assay. The text has this: Trypanosoma brucei brucei is a blood stream parasite to which human, gorillas, and baboons are immune due to the presence of the APOL1 protein in their HDL particles. The protein is uptaken by the parasite via the TbHpHb receptor located in its flagellar pocket and is bonded by the Hpr protein contained in the HDL particles which triggers the receptor endocytosis by the parasite.
Following endocytosis, the formed vesicle containing the HDL particle matures from early to late endosome, and subsequently to lysosome. The concomitant pH change in the lumen of the vesicle triggers the insertion of the APOL1 protein into the membrane of the late endosome/lysosome and hereby triggers lysosomal membrane permeabilization and as a further downstream event, trypanosome lysis. Trypanosoma brucei brucei is sensitive to lysis by all three APOL1 variants (G0, G1, and G2).
The Trypanosoma brucei brucei lysis assay is a lysis assay of the parasite using recombinant APOL1 protein variant followed by a fluorescent detection method of viability by the addition of AlamarBlue reagent to the assay well, a general metabolic redox indicator (AlamarBlue assay).
Briefly, the AlamarBlue active compound, resazurin, a blue, water soluble, non-toxic and cell permeable molecule, which can be followed by absorbance, is reduced by various metabolic pathways into resorufin, a red compound which can be followed by either absorbance or fluorescence. The assay allows the calculation of the percent viability (percent of living Trypanosomes remaining in each well) at the end of a lysis relative to the untreated condition by interpolation of fluorescent values (FLU) on a standard curve with a known amount of seeded trypanosome/well.
Trypanosoma brucei brucei (ATCC, Cat. No. PRA-382) • o Lister 427 VSG 221 bloodstream form.
Assay Ready Plates (ARPs) ∘ ARPs comes in two formats: • […] final top concentration with a 2.5 fold dilution down. • 5 mM final top concentration with a 3 fold dilution down. • ▪ Both have a 10 point Dose response. • ▪ 0.1% DMSO final in the Black Assay Plate. • ▪ Compounds are diluted 1000 fold in the Black Assay Plate. • ▪ Each plate is designed for 14 compounds in duplicate. ∘ In the final Black Assay Plate: […]
Take “(2S,6S)-2-chloro-2'-cyclopropyl-6'-methyl-spiro[4,5-dihydrothieno[2,3-c]pyran-7,4'-piperidine] [Compound 211]”: the IC50 was 50 to 500 nM.
For “(2S)-2-chloro-2'-methyl-6'-(1-methylpyrazol-4-yl)spiro[4,5-dihydrothieno[2,3-c]pyran-7,4'-piperidine]-4-ol [Compound 175]”, the IC50 was less than 50 nM.
Same read-out and setting: next, “2-chloro-2'-ethyl-6'-(1-methyltriazol-4-yl)spiro[4,5-dihydrothieno[2,3-c]pyran-7,4'-piperidine] [Compound 186]”: 50 to 500 nM; “2'-ethyl-6'-(1-methyltriazol-4-yl)-2-(trifluoromethyl)spiro[4,5-dihydrothieno[2,3-c]pyran-7,4'-piperidine] [Compound 187]”: 50 to 500 nM.
